Data from paper PMC9308172 (Journal of medicinal chemistry, 2017).

test system: A/WSN/33-M2-N31S; type: cell-based, Influenza virus A/WSN/33 (H1N1); conditions: read-out: IC50 A/WSN/33-M2-N31S

Going from `CC12CC3CC(CC(C3)C13CCCN3)C2` (stereo not shown) [Compound 8, 1′-Methylspiro[pyrrolidine-2,2′-adamantane]] to `C1CNC2(C1)C1CC3CC(C1)CC2C3` (stereo not shown) [Compound 6], the IC50 falls from 6.12 ± 2.59 µM to 0.34 ± 0.08 µM (18-fold).

Compared with `NC1(C23CC4CC(CC(C4)C2)C3)CCCC1` [Compound 9], `NC12CC3CC(CC(C3)C1)C2` [Compound 1, Amantadine, reference compound] is 16-fold lower in IC50: 4.34 ± 2.94 µM for the first, 0.27 ± 0.16 µM for the second.

Going from `CN1CCCC12C1CC3CC(C1)CC2C3` (stereo not shown) [Compound 7] to `CC1(N)C2CC3CC(C2)CC1C3` (stereo not shown) [Compound 3], the IC50 falls from 0.9 ± 0.29 µM to 0.33 ± 0.1 µM (2.7-fold). The second is the more potent here.

`NC1C2CC3CC(C2)CC1C3` (stereo not shown) [Compound 2] and `CCC1(N)C2CC3CC(C2)CC1C3` (stereo not shown) [Compound 4] are within error of each other in IC50: 0.42 ± 0.46 µM for the first, 0.34 ± 0.26 µM for the second.

In the case of `CCCC1(N)C2CC3CC(C2)CC1C3` (stereo not shown) [Compound 5], the IC50 is reported as 0.34 ± 0.1 µM.

test system: A/California/07/2009 (H1N1) M2: N31; conditions: cited from earlier work

In the case of `CCCC1(N)C2CC3CC(C2)CC1C3` (stereo not shown) [Compound 5], the “blockage of full-length S31N M2 protein in electrophysiology (EP) studies” value is given as “no blockage”.
